Reference: PMC8653295 (Chemistry (Weinheim an Der Bergstrasse, Germany), 2021)
Where “and” joins values, the source holds several entries; their conditions need not be identical. Identical values can stand only once.

How the values were obtained:
[1] = target: interaction of the RBD of the SARS‐CoV‐2 S protein with the ACE2 receptor (Severe acute respiratory syndrome coronavirus 2, UniProt P0DTC2); assay type: binding; details: for inhibition of the S/ACE2 interaction: 20 µM
[2] = target: SARS‐CoV PL^pro (Severe acute respiratory syndrome coronavirus, UniProt P0C6X7); test: biochemical; assay type: biochemical; details: for inhibition of SARS-CoV PLpro: 10 µM
[3] = target: SARS‐CoV‐2 PL^pro (Severe acute respiratory syndrome coronavirus 2, UniProt P0DTD1); test: biochemical; assay type: biochemical; details: for inhibition of SARS-CoV-2 PLpro: 1 µM

Row | Molecule | inhibition of the S/ACE2 interaction [1] [%] | inhibition of SARS-CoV PLpro [2] | inhibition of SARS-CoV-2 PLpro [3] | also measured
1 | Cs3K[(HO2CC6H4CH2P)2Mo5O21] ⋅ 5H2O [POM‐8] | 9 | 5% | 7% | 
2 | O=C(NC1C(O)OC(CO)C(O)C1O)C1CCN(C(=S)[S][Au][PH](c2ccccc2)(c2ccccc2)c2ccccc2)CC1 (mixture of isomers) [Au‐36] | 0 | 79% | 74% | IC50 [2]: 330 ± 160 nM; IC50 SARS‐CoV PL^pro [2]: Submicromolar; IC50 [3]: 140 ± 90 nM; IC50 SARS‐CoV‐2 PL^pro [3]: Submicromolar
3 | CC[n+]1[c-]n(CC2(c3ccc(Cl)cc3Cl)OCC(COc3ccc(N4CCN(C(C)=O)CC4)cc3)O2)cc1.[Au+].[Cl-] (stereo not shown) [Au‐19] | 16 | 94% and > 80% | 2% | 
4 | CCP(CC)CC.[Au+].[Cl-] [Au‐3, (triethylphosphine)AuCl, reference compound] | 24 | 95% and > 50% | 55% and > 50% | IC50 [2]: 1200 ± 440 nM; IC50 [3]: 1100 ± 120 nM
5 | [Cl][Au].c1ccc(P(c2ccccc2)c2ccccc2)cc1 [Au‐4, (triphenylphosphine)AuCl, reference compound] | 19 | 50% and > 50% | 78% and > 50% | 
6 | K7[Ti2PW10O40] ⋅ 6H2O [POM‐3] | 68 | 63% | 15% | 
7 | C1=CCCC=CCC1.Cn1[c-][n+](C)c(-c2ccccc2)c1.[Br-].[Rh+] [Rh‐9] | 17 | 94% | 50% | IC50 [2]: 6700 ± 2400 nM; IC50 SARS‐CoV PL^pro [2]: low micromolar range; IC50 [3]: 2200 ± 1000 nM; IC50 SARS‐CoV‐2 PL^pro [3]: low micromolar range
8 | C1=CCCC=CCC1.Cn1[c-][n+](C)c(-c2ccccc2)c1.[Cl-].[Rh+] [Rh‐8] | 12 | 93% | 35% | 
9 | Cc1cn(CC=C[c-]2cccc2)c(=O)[nH]c1=O.[Ru+2].c1cc[cH-]c1 [Ru‐17] | 26 | 3% | -17% | 
10 | ((NH2)3C)4[(BrC6H4As)2Mo6O24] ⋅ 2H2O [POM‐9] | 7 | 13% | 7% | 
11 | Cc1cn(C/C=C/[c-]2cccc2)c(=O)[nH]c1=O.Cc1cn(C/C=C/[c-]2cccc2)c(=O)[nH]c1=O.[Fe+2] [Fe‐12] | 28 | -4% | -8% | 
12 | Cn1cc(-c2ccccc2)[n+](C)[c]1[Au-][c]1n(C)cc(-c2ccccc2)[n+]1C.[I-] [Au‐24] | 18 | 12% | -17% | 
13 | C[CH2][Hg][S]c1ccccc1C(=O)[O-].[Na+] [Hg‐1, thiomersal, reference compound] | 7 | -63% | 9% | 
14 | CC(C)n1cc(-c2ccccc2)[n+](C(C)C)[c]1[Au-][c]1n(C(C)C)c(-c2ccccc2)c[n+]1C(C)C.[I-] [Au‐29] | 8 | 24% | 4% | 
15 | CC(C)n1cc(-c2ccccc2)n(C(C)C)[c]1=[Au][Cl] [Au‐16] | 10 | 57% | 41% | 
16 | CC(=O)OC[C@H]1O[C@@H]([S-])[C@H](OC(C)=O)[C@@H](OC(C)=O)[C@@H]1OC(C)=O.CCP(CC)CC.[Au+] [Au‐1, auranofin, reference compound] | 20 | 58% and > 50% | 51% and > 50% | 
17 | [Au+3].[Cl-].[Cl-].[Cl-].[Cl-].[H+] [Au‐5, chloroauric acid, reference compound] | 45 | 89% and > 50% | 72% and > 50% | 
18 | COc1ccc(C#[C][Au-][c]2n(C)c3ccccc3[n+]2C)cc1 [Au‐6] | 16 |  |  | 
19 | CCn1cc(-c2ccccc2)[n+](CC)[c]1[Au-][c]1n(CC)cc(-c2ccccc2)[n+]1CC.[I-] [Au‐23] | 23 | 25% | -10% | 
20 | Cn1[c]([Au-][c]2n(C)c3ccccc3[n+]2C)[n+](C)c2ccccc21.[I-] [Au‐21] | 22 | 11% | 10% | 
21 | CCn1[c]([Au-][S]C(=S)N2CCC(C(=O)NC3C(O)OC(CO)C(O)C3O)CC2)[n+](CC)c2ccccc21 (mixture of isomers) [Au‐35] | 0 | 85% | 58% | IC50 SARS‐CoV PL^pro [2]: Submicromolar; IC50 [3]: 410 ± 140 nM; IC50 SARS‐CoV‐2 PL^pro [3]: Submicromolar
22 | C1=CCCC=CCC1.CCn1[c-][n+](CC)c(-c2ccccc2)c1.[I-].[Rh+] [Rh‐3] | 0 | 63% | 15% | 
23 | C1=CCCC=CCC1.CCn1[c-][n+](CC)c(-c2ccccc2)c1.[Cl-].[Rh+] [Rh‐1] | 0 | 67% | -4% | 
24 | O=[N+]([O-])[O-].[Ag+] [Ag‐1, silver nitrate, reference compound] | 6 | 100% | 72% | activity against SARS‐CoV PL^pro (in words) [2]: completely inhibited; IC50 [3]: 450 ± 210 nM
25 | CCN(CC)C(=S)SSC(=S)N(CC)CC [DS, disulfiram, reference compound] |  |  |  | inhibition at 10 µM ([2]; read-out: inhibition of SARS-CoV PLpro): 87%; inhibition at 1 µM ([3]; read-out: inhibition of SARS-CoV-2 PLpro): 73%
26 | C1=CCCC=CCC1.CCn1[c-][n+](CC)c(-c2ccc(F)cc2)c1.[Br-].[Rh+] [Rh‐5] | 5 | 71% | 19% | 
27 | K6H2[CoW11TiO40] ⋅ 12H2O [POM‐4] | 82 | 44% | 7% | activity against SARS‐CoV PL^pro (in words) [2]: active only against the enzyme from SARS‐CoV
28 | [Cl][Ti]([Cl])([Cl])[Cl] [Ti‐2, titanium(IV) tetrachloride, reference compound] | 0 | -7% | -3% | activity against the S/ACE2 interaction (in words) [1]: inactive; activity against SARS‐CoV PL^pro (in words) [2]: inactive; activity against SARS‐CoV‐2 PL^pro (in words) [3]: inactive
29 | C1=CCCC=CCC1.Cn1[c-][n+](C)c(-c2ccc(F)cc2)c1.[Br-].[Rh+] [Rh‐11] | 14 | 91% | 48% | 
30 | Cn1cc(-c2ccccc2)n(C)[c]1=[Au][Cl] [Au‐14] | 17 | 51% | 23% | 
